{"source": "patent US20250275953A1", "about": "“VODOBATINIB FOR REDUCING PROGRESSION OF PARKINSON'S DISEASE” (Sun Pharma Advanced Research Company Ltd., priority 2022, published 2025)", "origin": "cited, not measured here", "details": "nilotinib 150 and 300 mg; cited from earlier work"}
{"smiles": "Cc1cn(-c2cc(NC(=O)c3ccc(C)c(Nc4nccc(-c5cccnc5)n4)c3)cc(C(F)(F)F)c2)cn1", "note": "[Nilotinib, nilotinib]", "values": [{"measurement": "efficacy in Parkinson's disease patients", "result": "not efficacious"}]}
